In patent US12516027B2, “Lappaconitine derivative and use thereof” (priority 2020, dated 2026):

Legend:
[1] = tested on: ovariectomized (OVX) mice; experiment: Animal model of osteoporosis, ovariectomized (OVX) mice; type: in vivo
Excerpt: An ability of QG3030 to treat osteoporosis was confirmed in an animal model of ovariectomized (OVX) mice commonly used as an animal model of osteoporosis.
As the positive controls, parathyroid hormone (PTH)-based Forteo (Eli Lilly) used as an osteoporosis therapeutic agent through an osteogenesis-promoting mechanism, and alendronate-based Fosamax (Merck) serving as a bone resorption inhibitor were subcutaneously administered. As the negative control, water (H2O) was orally administered, and QG3030 was orally administered at a concentration of 5 or 30 mg/kg (FIG. 9A). After the drug was administered daily for 10 weeks, the bone mineral density (BMD) was measured.
In Table 2, BMD represents bone mineral density, TV represents total volume, BV represents bone volume, Tb.Th represents trabecular thickness, and Tb.N represents trabecular number.

ERK [2] = experiment: Phosphorylated ERK in MSCs with QG3030 and ERK inhibitor PD98059; type: cell-based, human
Experimental: (§1) ERK may induce the phosphorylation of RUNX2 to increase transcriptional activity and may be involved in stability to increase an amount of RUNX2 protein (Greenblatt et al., MB, Annu Rev Cell Dev Biol. 2013). Therefore, an increase in ERK phosphorylation by QG3030 may induce RUNX2 expression so that QG3030 can be involved in the differentiation of MSCs into osteoblasts. To verify this, an expression level of RUNX2 was determined after MSCs were treated with a combination of QG3030 (0.1 μM) and the ERK inhibitor PD98059 (50 μM).

RUNX2 [3] = experiment: RUNX2 expression in MSCs with QG3030 and ERK inhibitor PD98059; type: cell-based, human; conditions: same at 24 hours
Experimental: as §1

ERK, Akt, WNK1 = experiment: Phosphokinase antibody array in MSCs; type: cell-based, human; conditions: 1 μM, 24 hours, compared to control DMSO
Experimental: To study a mechanism by which QG3030 differentiates MSCs into osteoblasts, related signaling was investigated.
MSCs cultured in an experimental DMEM were treated with QG3030 (1 μM) or the control compound (DMSO), and cultured for 24 hours. The cells were recovered, and an experiment was then performed according to a method specified in a phosphokinase antibody array kit (R&D Systems) containing antibodies that specifically recognize phosphorylated forms of 43 kinases. Then, samples were analyzed using an ImageJ (NIH, USA) program.

ERK [4] = experiment: Level of phosphorylated ERK (pERK) in MSCs over time; type: cell-based, human
Experimental: Accordingly, the level of the phosphorylated ERK according to time elapsed after MSCs were treated with QG3030 was determined.
Also, to determine whether QG3030 induces ERK phosphorylation for a long period, MSCs were treated with various concentrations (0.001, 0.01, and 0.1 μM) of QG3030, and the level of phosphorylated ERK (pERK) was checked after 7 days and 14 days.

RUNX2 [5] = experiment: Change in expression of RUNX2 in MSCs (antibody staining, fluorescence microscope); type: cell-based, human; conditions: 0.001 μM, once a day for 7 and 14 days; increased with increasing concentration
Excerpt: (§2) Runt-related transcription factor 2 (RUNX2; core-binding factor alpha, Cbfa1) is the most important transcriptional regulatory factor for osteogenesis, and is known to be involved in osteoblast differentiation, matrix generation, and mineralization during osteogenesis (Bruderer M, et al., Eur Cell Mater. 2014). Also, RUNX2 itself may be regulated by a bone morphogenetic protein (BMP), which is a type of cytokine (Sun J, et al., Mol Med Rep. 2015). Accordingly, it was confirmed whether QG3030 promotes the expression of osteogenesis-related specific factors to induce osteogenesis.
(§3) MSCs were seeded in a 24-well plate at a concentration of 3×10^4 cells/well, and cultured for 24 hours. From the next day, the MSCs were treated with different concentrations (0.001 μM, 0.01 μM, and 0.1 μM) of QG3030 once a day for 7 days and 14 days. After the experiment was completed, the MSCs were stained with RUNX2 and BMP-2 antibodies, and observed using a fluorescence microscope.

human MSCs = experiment: Osteocytic differentiation potential in MSCs (Alizarin Red and Von Kossa staining); type: cell-based; conditions: 0.1 μM, cultured for 3 weeks, like OIM positive control
Experimental: Osteoblasts involved in the osteogenesis are formed by differentiating mesenchymal stem cells (MSCs) using external stimuli and transcription factors involved in various signaling pathways (Garg et al., Orthop Surg. 2017). Accordingly, an experiment was performed to check whether QG3030 was able to induce the differentiation of human MSCs into osteoblasts.
MSCs from normal humans were purchased from the American Type Culture Collection (ATCC, U.S.A), and cultured in an MSC-specific culture medium (Gibco). The cultured cells were digested with trypsin, centrifuged, and then seeded in a 24-well plate at a concentration of 3×10^4 cells/well. The next day, the MSC culture medium was exchanged with a DMEM (DMEM/10% FBS/penicillin/streptomycin) as an experimental medium, and the cells were treated with QG3030 alone (0.1 μM) or OIM (osteogenesis-inducing medium; StemPro Osteogenesis Differentiation Kit, ThermoFisher Scientific Inc.) as the positive control. Thereafter, the cell culture medium was exchanged with a fresh DMEM every day, treated with QG3030 or OIM, and then cultured for 3 weeks. After the culture was completed, the cells were stained with Alizarin Red for detection of calcium and Von Kossa for detection of mineral production.

MSCs = experiment: Osteoblast differentiation of MSCs with kinase inhibitor combination (Alizarin Red); type: cell-based, human; conditions: QG3030 1 μM + kinase inhibitor 1 μM, 3 weeks, compared to QG3030-alone group
Experimental: To further study the mechanism by which QG3030 differentiates MSCs into osteoblasts, an experiment was performed using a kinase inhibitor.
After MSCs were cultured, the MSCs were simultaneously treated with a kinase inhibitor (1 μM) and QG3030 (1 μM). The next day, the medium was exchanged, and the MSCs were simultaneously treated again with the kinase inhibitor and QG3030. This procedure was repeated for 3 weeks, and the MSCs were then stained with Alizarin Red.

osteocalcin = experiment: Change in expression of osteocalcin in MSCs (antibody staining, fluorescence microscope); type: cell-based, human; conditions: 0.001 μM, within 7 days
Experimental: Osteocalcin is expressed only in osteoblasts (Lee et al., Cell 2007), and is used as a biomarker useful for osteogenesis (Bharadwaj et al., Osteoporosis International., 2009).
An experiment was performed in the same manner as described in Experimental Example 1-2, and MSCs were then stained with an osteocalcin antibody, and observed using a fluorescence microscope.

BMP-2 = experiment: Change in expression of BMP-2 in MSCs (antibody staining, fluorescence microscope); type: cell-based, human; conditions: 0.001 μM, once a day for 7 and 14 days; increased with increasing concentration
Excerpt: as §2, §3

Sprague Dawley (SD) rat = experiment: Animal model of bone fracture, ilium bone defect; type: in vivo
Experimental: The ilium of a Sprague Dawley (SD) rat was subjected to drilling with a diameter of 2 mm to induce a bone defect, and QG3030 (6, 30, and 150 μg/10 μL) mixed with an excipient (collagen sponge, CollaCote®) was implanted into a bone defect site to evaluate an osteoanagenic effect (FIG. 11).
To statistically quantify the osteoanagenic capacity of QG3030, a degree of osteogenesis was realized with a 3-D image, and a region of interest (ROI) was set to analyze parameters such as bone volume/total volume (BV/TV; %), trabecular thickness (Tb.Th; mm), trabecular number (Tb.N; 1/mm), and trabecular separation (Tb.Sp; mm).

[6] = OVX mice, positive control, subcutaneous, daily for 10 weeks
[7] = OVX mice, 5 mg/kg oral, daily for 10 weeks
[8] = OVX mice, 30 mg/kg oral, daily for 10 weeks
[9] = OVX mice, 5 or 30 mg/kg oral, daily for 10 weeks
[10] = implanted in collagen sponge at bone defect site, QG3030 low, medium and high, BMP2 1 ug/10 uL

CC[C@H](C)[C@H](NC(=O)[C@H](CCC(=O)O)NC(=O)[C@H](CO)NC(=O)[C@@H](NC(=O)[C@@H](N)CO)C(C)C)C(=O)N[C@@H](CCC(N)=O)C(=O)N[C@@H](CC(C)C)C(=O)N[C@@H](CCSC)C(=O)N[C@@H](Cc1cnc[nH]1)C(=O)N[C@@H](CC(N)=O)C(=O)N[C@@H](CC(C)C)C(=O)NCC(=O)N[C@@H](CCCCN)C(=O)N[C@@H](Cc1cnc[nH]1)C(=O)N[C@@H](CC(C)C)C(=O)N[C@@H](CC(N)=O)C(=O)N[C@@H](CO)C(=O)N[C@@H](CCSC)C(=O)N[C@@H](CCC(=O)O)C(=O)N[C@@H](CCCN=C(N)N)C(=O)N[C@H](C(=O)N[C@@H](CCC(=O)O)C(=O)N[C@@H](Cc1c[nH]c2ccccc12)C(=O)N[C@@H](CC(C)C)C(=O)N[C@@H](CCCN=C(N)N)C(=O)N[C@@H](CCCCN)C(=O)N[C@@H](CCCCN)C(=O)N[C@@H](CC(C)C)C(=O)N[C@@H](CCC(N)=O)C(=O)N[C@@H](CC(=O)O)C(=O)N[C@H](C(=O)N[C@@H](Cc1cnc[nH]1)C(=O)N[C@@H](CC(N)=O)C(=O)N[C@@H](Cc1ccccc1)C(=O)O)C(C)C)C(C)C [Forteo, reference compound]
BMD [1, 6]: 0.1997 g/mL
BV [1, 6]: 0.8791 mm^3
BV/TV [1, 6]: 5.735%
TV [1, 6]: 15.43 mm^3

NCCCC(O)(P(=O)(O)O)P(=O)(O)O [Fosamax, reference compound]
BMD [1, 6]: 0.2135 g/mL
BV [1, 6]: 1.017 mm^3
BV/TV [1, 6]: 6.521%
TV [1, 6]: 15.51 mm^3

COc1cccc(-c2cc(=O)c3ccccc3o2)c1N [PD98059, reference compound]
increase in the phosphorylation level of ERK by QG3030 (ERK [2]; combination of QG3030 0.1 μM and PD98059 50 μM): inhibited
expression of RUNX2 (RUNX2 [3]; combination of QG3030 0.1 μM and PD98059 50 μM, 12 hours): significantly decreased

CCN1C[C@]2(O)CC[C@H](OC)C34C1C(C[C@@H]32)[C@]1(O)C[C@H](OC)[C@@H]2C(=O)C(=O)[C@H]4[C@@H]21 [QG3030, (2aR,2a1S,3S,4aS,8S,11S,11bS,12S)-6-ethyl-4a,8-dihydroxy-3,11-dimethoxy-tetradecahydro-8,11a,5-(epiethane[1,1,2]triyl)cyclopenta[7,1]indeno[5,4-b]azocin-1,2-dione]
phosphorylation of signaling molecules such as ERK, Akt, WNK1 (ERK, Akt, WNK1): strongly increased the phosphorylation
BMD [1, 7]: 0.2136 g/mL
BV [1, 7]: 1.107 mm^3
BV/TV [1, 7]: 6.713%
TV [1, 7]: 16.57 mm^3
Tb. N [1, 7]: 0.9472 1/mm
Tb. Th [1, 7]: 0.07081 mm
BMD [1, 8]: 0.2301 g/mL
BV [1, 8]: 1.156 mm^3
BV/TV [1, 8]: 7.731%
TV [1, 8]: 14.92 mm^3
Tb. N [1, 8]: 1.044 1/mm
Tb. Th [1, 8]: 0.07492 mm
bone mineral density compared to the negative control [1, 9]: significantly increased
effect on bone mineral density compared with Forteo [1, 9]: significantly superior to that of Forteo
expression of RUNX2 in the femurs (tissue staining) ([1]; ovariectomized mice): significantly increased
osteogenesis in the femurs (tissue staining) ([1]; ovariectomized mice): induced osteogenesis
level of phosphorylated ERK (pERK) (ERK [4]; 0.001, 0.01 and 0.1 μM, after 7 days and 14 days): significantly increased
level of phosphorylated ERK (pERK) (ERK [4]; after 24 hours after treatment): increased
level of phosphorylated ERK (pERK) compared with positive control (OIM) (ERK [4]; low concentration, 7 days, lasted until 14 days): greater than that of the positive control
level of phosphorylated ERK (pERK) (ERK [4]; within 30 minutes after treatment): significantly increased
phosphorylation level of ERK (ERK [2]; QG3030 0.1 μM alone): increased
expression of RUNX2 (RUNX2 [5]): strongly induced the expression
calcium (Alizarin Red staining) (human MSCs): induced calcium and mineral production
mineral production (Von Kossa staining) (human MSCs): induced calcium and mineral production
osteoblast differentiation ability of QG3030 (Alizarin Red) in combination with inhibitor of ERK, P38 or Akt (MSCs): inhibited
expression of osteocalcin (osteocalcin): strongly induced the expression of osteocalcin
expression of BMP-2 (BMP-2): strongly induced the expression
expression of RUNX2 (RUNX2 [3]; QG3030 0.1 μM alone, within 12 hours): significantly increased
tissue staining markers (H&E, collagen, type I collagen, osteocalcin) at bone defect sites (Sprague Dawley (SD) rat; QG3030 low, medium and high concentrations, effect similar to BMP2): markers were expressed
bone quality by Tb.N and Tb.Sp (other than Tb.Th) compared to DMSO-treated group (Sprague Dawley (SD) rat; [10]): high-quality bone tissue was statistically significantly formed
bone volume/total volume (BV/TV) compared to negative control treated with DMSO (Sprague Dawley (SD) rat; [10]): increased to a similar level
quality of generated bone compared to BMP2 (Sprague Dawley (SD) rat; no statistical significance): better quality of bone compared to BMP2
